These results are taken from US7815895B2, “Method for activating efferent sympathetic nerves innervating adipose tissues to improve obesity and symptoms associated therewith” (priority 2007, dated 2010).

Experiment [1] concerns PPARγ2-mice and LacZ-mice. The experiment is described as follows: Bupranolol loading test (serum FFA). The experiment is classed as in vivo. Conditions: fed state, 10 mg/kg intraperitoneal. The method, then:
(A) Plasma lipid parameters (left: total cholesterol, middle: triglyceride (TG), right: free fatty acids (FFA)) in LacZ-mice (white bars) and PPARγ2-mice (black bars) on day 7 after adenoviral administration were measured in the 10 hour fasted state. (B-C) Relative amounts of UCP1 (left), PGC-1α (middle) and HSL (right) in brown adipose tissue (B) and epididymal fat tissue (C) from ad libitum-fed LacZ-mice (white bars) and PPARγ2-mice (black bars) on day 7 after adenoviral administration. (D) A pan-β adrenergic blocker, bupranolol, was injected intraperitoneally into LacZ-mice (open circles) and PPARγ2-mice (closed circles) in the fed state, on day 5 after adenoviral administration, followed by measurement of serum FFA levels. Data were expressed as percentages of serum FFA levels immediately before intraperitoneal bupranolol loading (10 mg/kg of body weight). Date are presented as mean±SD. **P<0.01 and *P<0.05, compared to control mice, by unpaired t test.
Glucose tolerance tests were performed on mice fasted for 10 hours as previously described (Y. Ishigaki et al., Diabetes 54, 322 (2005)). Insulin tolerance tests were performed on ad libitum fed mice. […] Serum FFA levels were measured immediately before and at 30 and 60 min after injection of inraperitoneal bupranolol (10 mg/kg of body weight, Kaken Pharmaceutical Co., Ltd. Tokyo, Japan).

Experiment [2] has as its system Male SD rats with high fat diet-induced obesity. The experiment in a line: Perivagal capsaicin or vehicle 7 days prior to LacZ or PPARγ2 adenovirus. The experiment is classed as in vivo. Conditions: perivagal capsaicin treatment. The method, then:
Table 1. Afferent vagal activation from the liver is involved in remote effects of hepatic PPARγ2 expression. (Upper Column) Mice were subjected to hepatic vagotomy or sham operation 7 days prior to administration of LacZ or PPARγ2 adenovirus. Resting oxygen consumption (VO2) was measured on day 3 after adenoviral injection. Mice were sacrificed after a 10 hour fast on day 7 after adenoviral injection. (Lower Column) Male SD rats with high fat diet-induced obesity were subjected to application of capsaicin or vehicle to the vagal hepatic branch 7 days prior to administration of LacZ or PPARγ2 adenovirus. Seven days after adenoviral administration, epididymal fat weights were determined. P values: compared to LacZ-mice, by unpaired t test. n.s.: not significant.
Hepatic vagotomy involves dissection of both afferent and efferent vagal branches innervating the liver. To determine whether the remote effects of hepatic PPARγ2 expression are mediated by the afferent vagus, we applied a specific afferent neurotoxin, capsaicin, to the hepatic branch of the vagus of diet-induced obese male SD rats. Seven days after perivagal application of capsaicin or vehicle, we administered recombinant adenovirus encoding LacZ or PPARγ2. […] These observations indicate selective de-afferentation of the hepatic branch of the vagus. […]

Experiment [3] deals with hepatic branch of the vagus. The experiment in a line: Perivagal capsaicin: vagal nerve immunohistochemistry and transmission electron microscopy. The format is in vivo, rats. Particulars: 7 days after perivagal application. The method, then:
SD rats were treated with perivagal application of vehicle or capsaicin, 7 days prior to removal of the hepatic vagal nerves from vehicle-treated rats (veh) and capsaicin-treated rats (cap), and the esophgeal branch of the posterior vagal trunk from capsaicin-treated rats (eso). (A) Immunohistochemistry of the vagal nerves with anti-calcitonin gene-related peptide (CGRP) and anti-S100 antibodies. Magnification: ×400. The graphs show immunohistological staining intensities and the data are expressed as percentages of the intensities in vehicle-treated vagal nerve. (B) Transmission electron microscopy of the vagal nerves. While myelinated fibers are intact (arrows), unmyelinated fibers have been selectively degraded in perivagal capsaicin-treated nerves (arrowheads). Representative images from two rats of each group are shown.
After 4 weeks of a high-fat diet starting at 5 weeks of age, male SD rats were subjected to selective hepatic vagal afferent blockade. The hepatic branch of this vagal trunk was exposed as described above, then loosely tied with a cotton string immersed with or without capsaicin (Sigma Chemical Co, St Louis, Mo., USA) dissolved in olive oil (5% wt/vol). The cotton string was removed 30 min later and the abdominal incision was closed. Seven days after perivagal application of capsaicin or vehicle, recombinant adenovirus encoding LacZ or PPARγ2, at a dose of 6.5×10^8 plaque forming units (PFU), was injected via the tail vein.
Livers, WAT and BAT were removed and fixed with 10% formalin and embedded in paraffin. Tissue sections were stained with hematoxylin eosin. Total adipocyte areas were traced manually. Brown and white adipocyte diameters were measured in 150 or more cells per mouse in each group. For vagal nerve immunohistochemistry, SD rats were anesthetized with pentobarbiturate (60 mg/kg), and then perfused transcardially with saline and sequentially with 4% paraformaldehyde in 0.2 M phosphate buffer (PB; pH 7.4). […] The intensities of bands were quantified with the NIH image 1.62 program. […]

Regarding `Cc1ccc(Cl)c(OCC(O)CNC(C)(C)C)c1` (stereo not drawn) [bupranolol], the entries for the “serum FFA” value in experiment [1] (LacZ-mice) and in experiment [1] (PPARγ2-mice) were “no effect” and “decreased”, respectively.
For the compound `COc1cc(CNC(=O)CCCC/C=C/C(C)C)ccc1O` [capsaicin], in experiment [2], the “hepatic PPARγ2 expression-induced decrease in WAT weight” value is reported as “completely blocked”. Also, the “unmyelinated fibers in the vagal hepatic branch (electron microscopy)” value in experiment [3] is “selective degradation”. Also, in experiment [3] (versus vehicle), the “Expression of calcitonin gene-related peptide in vagal nerve” value was “markedly decreased” and the “immunoreactivity for S100 proteins” value is listed as “similar”.
